Measured values taken from ChEMBL document CHEMBL1128524, “The histamine H1-receptor antagonist binding site. A stereoselective pharmacophoric model based upon (semi-)rigid H1-antagonists and including a known interaction site on the receptor” (J Med Chem, 1995).

How the values were obtained:
Histamine H1 receptor [1] = biological target: T1, Histamine H1 receptor (Cavia porcellus, UniProt P31389); experiment: Inhibition of [3H]mepyramine binding with histamine H1 receptor in guinea pig cerebellum membranes after 30 min; assay type: cell membranes, Membrane
T1 sequence (P31389 whole entry): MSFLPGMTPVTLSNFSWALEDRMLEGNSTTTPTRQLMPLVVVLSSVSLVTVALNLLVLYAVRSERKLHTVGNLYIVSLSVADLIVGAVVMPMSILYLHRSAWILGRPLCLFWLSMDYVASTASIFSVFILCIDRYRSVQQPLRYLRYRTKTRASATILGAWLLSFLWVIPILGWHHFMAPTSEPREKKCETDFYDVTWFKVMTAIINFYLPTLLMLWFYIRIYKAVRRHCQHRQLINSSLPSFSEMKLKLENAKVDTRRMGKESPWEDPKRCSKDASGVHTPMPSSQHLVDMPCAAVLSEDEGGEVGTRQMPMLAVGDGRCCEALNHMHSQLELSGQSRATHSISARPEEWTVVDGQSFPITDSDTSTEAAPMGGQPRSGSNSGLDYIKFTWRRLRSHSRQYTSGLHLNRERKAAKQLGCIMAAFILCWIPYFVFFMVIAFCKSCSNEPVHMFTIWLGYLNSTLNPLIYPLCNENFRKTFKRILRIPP

Histamine H1 receptor [2] = biological target: T1, Histamine H1 receptor; experiment: (§1) Potency against histamine H1 receptor on guinea pig ileum; assay type: tissue-based; conditions: read-out: pA2 (converted)
Histamine H1 receptor [3] = biological target: T1, Histamine H1 receptor; experiment: Inhibition of [3H]mepyramine binding with histamine H1 receptor in guinea pig cerebellum membranes; assay type: cell membranes, Membrane
[4] = biological target: Histamine H1 receptor (Cavia porcellus) (UniProt P31389); experiment: as §1; assay type: tissue-based
Histamine H1 receptor (Cavia porcellus), sequence (P31389 whole entry): as above

Histamine H1 receptor [5] = biological target: T1, Histamine H1 receptor; experiment: as §1

In the case of `Cc1ccc([C@H](OCCN(C)C)c2ccccc2)cc1`, the Ki (Histamine H1 receptor [1]) is reported as 12.3 nM and the Kb (Histamine H1 receptor [2]) is reported as 2 nM.
With `Cc1ccc([C@@H](OCCN(C)C)c2ccccc2)cc1` the Kb (Histamine H1 receptor [2]) was 158 nM and the Ki (Histamine H1 receptor [3]) was 12.3 nM.
For `c1ccc2c(c1)Sc1ccccc1N2C1CN2CCC1CC2` (configuration not stated), the pED50 [4] was 7.3.
For `c1ccc2c(c1)Sc1ccccc1N2CC1CN2CCC1CC2` (configuration not stated), the pED50 [4] was 7.2.
`NC1=NCC2c3ccccc3Cc3ccccc3N12` (configuration not stated) [EPINASTINE] gave a Ki (Histamine H1 receptor [1]) of 1.41 nM and an IC50 (Histamine H1 receptor [5]) of 1.58 nM.
In the case of `CN1CCC2=C(C1)C(c1ccccc1)c1ccccc12` (configuration not stated) [PHENINDAMINE], the Ki (Histamine H1 receptor [1]) is reported as 6.31 nM and the Kb (Histamine H1 receptor [2]) is reported as 1.58 nM.
Work on `Cc1ccc(/C(=C\CN2CCCC2)c2ccccn2)cc1` [TRIPROLIDINE] yielded a Ki (Histamine H1 receptor [1]) of 1.66 nM and a Kb (Histamine H1 receptor [2]) of 0.126 nM.
